Holding throughout (assay type): in vivo, mouse
In one experiment the test system is mice subjected to FST. Nature of the experiment: Forced Swim Test (FST). To be noted: 2nd 3-min period. The protocol:
The FST is the most used rodent model for screening antidepressants (Porsolt et al, 1977). Mice were dropped individually in a glass cylinder (25 cm high, 9 cm diameter) filled with 10 cm 25° C. water. The experiment was recorded with a camcorder, placed in front of the glass cylinders. Video were scored at a later time by an experimenter blind to the treatments. The indices of depression-related behavior are the immobility time, the swimming time and the climbing time.
FST test evaluates the despair behavior which is commonly reversed by antidepressants. During FST, the swimming time of each mouse was measured on each 1-min period, on 1st and 2nd 3-min periods.

The subject of a further experiment is REM sleep in mice. The experiment in a line: Quantification of sleep-wake episodes (REM sleep), EEG/EMG. The note with it: amitriptyline 1 mg/kg i.p., combined or not with mefloquine 1 mg/kg i.p.; vs control. The text has this: Mice were implanted with cortical and muscle electrodes to record the electroencephalogram (EEG) and electromyogram (EMG) and to monitor the sleep-wake cycle. This implantation allows stable and long-lasting polysomnographic recordings (Parmentier et al, 2002).
Polysomnographic records were visually scored by 10-s epochs for wakefulness (W), slow wave sleep (SWS), and paradoxical or rapid eye movement (REM) sleep.
Mice were registered by electroencephalogram to quantify sleep-wake episodes.

Experiment [1] concerns neuropathic mice (cuff model, allodynia). Nature of the experiment: Mechanical allodynia, von Frey test in sciatic nerve cuff model. The protocol:
Paw withdrawal thresholds of mice treated with either amitriptyline 6 mg/kg alone (AMIT 6) or amitriptyline 12 mg/kg alone (AMIT 12) are also shown (D). FIG. 10 (E) represents area under curve analysis.
Area under curve analysis are shown (B).
Neuropathic pain was induced to adult male C57BL/6J mice (Charles River, L'Arbresle, France) by cuffing the main branch of the right sciatic nerve (For detailed description and video illustration: Yalcin et al. 2014, J Vis Exp 89:e51608). Surgeries were performed under ketamine (68 mg/kg)/xylazine (10 mg/kg) intraperitoneal (i.p.) anesthesia (Centravet, Tadden, France). The common branch of the right sciatic nerve was exposed and a cuff of PE-20 polyethylene tubing (Harvard Apparatus, Les Ulis, France) of standardized length (2 mm) was unilaterally inserted around it (Cuff group). The shaved skin was closed using suture.
Injections were done once a day during the 17 first days of treatment, in the afternoon. As a single dose per day was ineffective, treatment was then done twice a day, morning and afternoon, from the 8 last days of treatment.
Mechanical allodynia was tested using von Frey hairs and results were expressed in grams (For detailed description and video illustration: Yalcin et al. 2014, J Vis Exp 89:e51608). Tests were done during the morning, starting at least 2 hours after lights on. Mice were placed in clear Plexiglas boxes (7 cm×9 cm×7 cm) on an elevated mesh screen. Calibrated von Frey filaments (Bioseb, Vitrolles, France) were applied to the plantar surface of each hindpaw until they just bent, in a series of ascending forces up to the mechanical threshold. Filaments were tested five times per paw and the paw withdrawal threshold was defined as the lower of two consecutive filaments for which three or more withdrawals out of the five trials were observed.
Mice were subjected to sciatic nerve cuffing and then tested with the von Frey test to evaluate allodynia quantified as pressure threshold.
Mice were subjected to sciatic nerve cuffing and then tested with the von Frey test to evaluate allodynia quantified as pressure threshold. Neuropathic mice, characterized by a decrease of pressure threshold after surgery, were then treated during 25 days and tested by the von Frey test during this period.

`CN(C)CCC=C1c2ccccc2CCc2ccccc21` [amitriptyline, 3-(5,6-dihydrodibenzo[2,1-b:2′,1′-f][7]annulen-11-ylidene)-N,N-dimethylpropan-1-amine]: the Swimming time result is on record as “not significant” with mice subjected to FST (amitriptyline 12 mg/kg per os alone) and “significant increase of the swimming time” in the experiment on mice subjected to FST (amitriptyline 24 mg/kg per os, single). In addition, the REM sleep duration entry in the experiment with REM sleep in mice was “did not induce significant reduction on its own”. For the same molecule, the “Paw withdrawal threshold (von Frey)” value in experiment [1] (amitriptyline 6 mg/kg i.p. chronic, alone) was “no changes of paw withdrawal”; in experiment [1] (amitriptyline 12 mg/kg i.p. chronic, in comparison with amitriptyline 6 mg/kg), “significant increase of the paw withdrawal threshold from day 32 to day 34”. The “Effective equivalent dose of amitriptyline when administered in combination with mefloquine” value in experiment [1] (relative to active dose of amitriptyline alone) is reported as “about 0.5”.
